Experimental data taken from patent US7678815B2, “Thiazole-4-carboxyamide derivatives” (Hoffmann-La Roche Inc., priority 2005, dated 2010).

molecular target: T1, human mGlu 5a receptor (Homo sapiens, UniProt P41594); test: [3H]MPEP competition binding on membranes of EBNA cells transfected with human mGlu 5a receptor; conditions: competition with [3H]MPEP (2 nM), 1 h at 4° C., Ki=IC50/[1+L/Kd]
T1 construct: expressed in transfected cells; host or cells: EBNA cells (transient transfection), cell membrane homogenates
Protocol: The pharmacological activity of the compounds was tested using the following method: For binding experiments, cDNA encoding human mGlu 5a receptor was transiently transfected into EBNA cells using a procedure described by Schlaeger and Christensen [Cytotechnology 15:1-13 (1998)]. Cell membrane homogenates were stored at −80° C. until the day of assay where upon they were thawed and resuspended and polytronized in 15 mM Tris-HCl, 120 mM NaCl, 100 mM KCl, 25 mM CaCl2, 25 mM MgCl2 binding buffer at pH 7.4 to a final assay concentration of 20 μg protein/well.
Saturation isotherms were determined by addition of twelve [^3H]MPEP concentrations (0.04-100 nM) to these membranes (in a total volume of 200 μl) for 1 h at 4° C. Competition experiments were performed with a fixed concentration of [^3H]MPEP (2 nM) and IC50 values of test compounds evaluated using 11 concentrations (0.3-10,000 nM). Incubations were performed for 1 h at 4° C.
At the end of the incubation, membranes were filtered onto unifilter (96-well white microplate with bonded GF/C filter preincubated 1 h in 0.1% PEI in wash buffer, Packard Bio-Science, Meriden, Conn.) with a Filtermate 96 harvester (Packard BioScience) and washed 3 times with cold 50 mM Tris-HCl, pH 7.4 buffer. Nonspecific binding was measured in the presence of 10 μM MPEP. The radioactivity on the filter was counted (3 min) on a Packard Top-count microplate scintillation counter with quenching correction after addition of 45 μl of microscint 40 (Canberra Packard S.A., Zürich, Switzerland) and shaking for 20 min.
For binding experiments the Ki values of the compounds tested are given. The Ki value is defined by the following formula: Ki=IC50/[1+L/Kd] in which the IC50 values are those concentrations of the compounds tested which cause 50% inhibition of the competing radioligand ([^3H]MPEP). L is the concentration of radioligand used in the binding experiment and the Kd value of the radioligand is empirically determined for each batch of membranes prepared.

T1 sequence (P41594 21-1180 isoform P41594-2 limits assumed): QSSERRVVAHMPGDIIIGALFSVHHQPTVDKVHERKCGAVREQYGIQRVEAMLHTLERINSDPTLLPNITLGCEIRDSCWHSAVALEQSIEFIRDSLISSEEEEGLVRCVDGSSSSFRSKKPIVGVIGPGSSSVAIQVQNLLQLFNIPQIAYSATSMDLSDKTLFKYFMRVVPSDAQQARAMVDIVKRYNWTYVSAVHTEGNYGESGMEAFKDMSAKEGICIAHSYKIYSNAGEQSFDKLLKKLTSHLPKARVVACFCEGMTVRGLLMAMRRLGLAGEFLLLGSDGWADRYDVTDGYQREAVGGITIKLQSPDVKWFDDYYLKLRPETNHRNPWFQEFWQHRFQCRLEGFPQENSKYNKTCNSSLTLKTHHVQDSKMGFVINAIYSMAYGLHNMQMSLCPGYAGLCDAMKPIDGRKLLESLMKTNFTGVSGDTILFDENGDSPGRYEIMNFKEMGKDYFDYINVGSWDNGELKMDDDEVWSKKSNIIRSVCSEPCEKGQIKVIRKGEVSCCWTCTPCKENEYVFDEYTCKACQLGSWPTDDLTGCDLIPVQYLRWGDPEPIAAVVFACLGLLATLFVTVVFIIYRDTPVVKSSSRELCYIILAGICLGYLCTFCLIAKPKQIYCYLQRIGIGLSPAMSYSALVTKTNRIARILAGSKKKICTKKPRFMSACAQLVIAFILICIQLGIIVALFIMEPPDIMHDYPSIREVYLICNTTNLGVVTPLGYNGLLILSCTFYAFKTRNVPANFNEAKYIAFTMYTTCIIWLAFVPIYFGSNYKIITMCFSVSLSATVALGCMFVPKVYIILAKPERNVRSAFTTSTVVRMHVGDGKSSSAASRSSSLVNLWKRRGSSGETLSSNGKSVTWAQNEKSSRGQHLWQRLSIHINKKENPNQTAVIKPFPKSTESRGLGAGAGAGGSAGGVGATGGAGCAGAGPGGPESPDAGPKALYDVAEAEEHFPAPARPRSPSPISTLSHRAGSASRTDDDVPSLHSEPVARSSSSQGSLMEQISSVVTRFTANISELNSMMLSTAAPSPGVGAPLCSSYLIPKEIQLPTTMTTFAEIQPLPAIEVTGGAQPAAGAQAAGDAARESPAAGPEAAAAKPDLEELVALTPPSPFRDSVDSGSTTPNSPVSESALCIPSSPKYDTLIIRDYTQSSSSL

SMILES	Ki
CNc1scnc1C(=O)Nc1cccc(Cl)c1 [Example 24, 5-Methylamino-thiazole-4-carboxylic acid (3-chloro-phenyl)-amide]	127 nM
Cc1cccc(NC(=O)c2nc(C)sc2Nc2cccc(S(C)(=O)=O)c2)n1 [Example 149, 5-(3-Methanesulfonyl-phenylamino)-2-methyl-thiazole-4-carboxylic acid (6-methyl-pyridin-2-yl)-amide]	53 nM
Cc1nccc(NC(=O)c2nc(C)sc2Nc2cccc(C(N)=O)c2)n1 [Example 209, 5-(3-Carbamoyl-phenylamino)-2-methyl-thiazole-4-carboxylic acid (2-methyl-pyrimidin-4-yl)-amide]	40 nM
Cc1cccc(NC(=O)c2ncsc2Nc2c(C)noc2C)n1 [Example 74, 5-(3,5-Dimethyl-isoxazol-4-ylamino)-thiazole-4-carboxylic acid (6-methyl-pyridin-2-yl)-amide]	99 nM
O=C(Nc1cccc(Cl)c1)c1ncsc1Nc1cccnc1 [Example 2, 5-(Pyridin-3-ylamino)-thiazole-4-carboxylic acid (3-chloro-phenyl)-amide]	124 nM
O=C(Nc1cccc(Cl)c1)c1ncsc1NC1CC1 [Example 18, 5-Cyclopropylamino-thiazole-4-carboxylic acid (3-chloro-phenyl)-amide]	458 nM

Further compounds by falling Ki, results first:

Ki	SMILES
40 nM	Cc1nc(C(=O)Nc2cccc(Cl)c2)c(Nc2cccc(CNC(=O)OC(C)(C)C)c2)s1 [Example 145, {3-[4-(3-Chloro-phenylcarbamoyl)-2-methyl-thiazol-5-ylamino]-benzyl}-carbamic acid tert-butyl ester]
29 nM	Cc1cccc(NC(=O)c2ncsc2Nc2cccnc2)n1 [Example 1, 5-(Pyridin-3-ylamino)-thiazole-4-carboxylic acid (6-methyl-pyridin-2-yl)-amide]
26 nM	Cc1cccc(NC(=O)c2ncsc2Nc2ccccc2)n1 [Example 13, 5-Phenylamino-thiazole-4-carboxylic acid (6-methyl-pyridin-2-yl)-amide]
19 nM	Cc1csc(NC(=O)c2ncsc2Nc2cccc(C#N)c2)n1 [Example 81, 5-(3-Cyano-phenylamino)-thiazole-4-carboxylic acid (4-methyl-thiazol-2-yl)-amide]
18 nM	CC(=O)c1cccc(Nc2scnc2C(=O)Nc2cccc(C)n2)c1 [Example 88, 5-(3-Acetyl-phenylamino)-thiazole-4-carboxylic acid (6-methyl-pyridin-2-yl)-amide]
